Assay results: patent publication US20050256037A1, “Antibacterial amide macrocyles” (Bayer HealthCare AG, priority 2003, published 2005)
Values after ≈ are worked out from the molar mass of the structure shown. Where a name gives a salt, the structure may show the parent alone.

What was measured:
E. faecium L4001 [1] = test: MIC, liquid dilution test in minimal medium (96-well microtitre plate); assay type: cell-based; details: Enterococcus faecium, L4001, read-out: MIC E. faecium L4001
Experimental: (§1) Determination of the Minimum Inhibitory Concentration (MIC)
(§2) The minimum inhibitory concentration (MIC) is the minimum concentration of an antibiotic with which the growth of a test microbe is inhibited over 18-24 h. The inhibitor concentration can in these cases be determined by standard microbiological methods (see, for example, The National Committee for Clinical Laboratory Standards. Methods for dilution antimicrobial susceptibility tests for bacteria that grow aerobically; approved standard-fifth edition. NCCLS document M7-A5 [ISBN 1-56238-394-9]. NCCLS, 940 West Valley Road, Suite 1400, Wayne, Pa. 19087-1898 USA, 2000). The MIC of the compounds of the invention is determined in the liquid dilution test on the 96-well microtitre plate scale. The bacterial microbes are cultivated in a minimal medium (18.5 mM Na2HPO4, 5.7 mM KH2PO4, 9.3 mM NH4Cl, 2.8 mM MgSO4, 17.1 mM NaCl, 0.033 μg/ml thiamine hydrochloride, 1.2 μg/ml nicotinic acid, 0.003 μg/ml biotin, 1% glucose, 25 μg/ml of each proteinogenic amino acid with the exception of phenylalanine; [H.-P. Kroll; unpublished]) with addition of 0.4% BH broth (test medium). In the case of Enterococcus faecium L4001, heat-inactivated fetal calf serum (FCS; GibcoBRL, Germany) is added to the test medium in a final concentration of 10%. Overnight cultures of the test microbes are diluted to an OD578 of 0.001 (to 0.01 in the case of enterococci) in fresh test medium, and incubated 1:1 with dilutions of the test substances (1:2 dilution steps) in test medium (200 μl final volume). The cultures are incubated at 37° C. for 18-24 hours; enterococci in the presence of 5% CO2.
(§3) The lowest substance concentration in each case at which bacterial growth was no longer visible is defined as the MIC. […] The compounds show a graded antibacterial effect against most of the test microbes.

S. aureus E33 [2] = test: as above; assay type: cell-based; details: Staphylococcus aureus, E33, read-out: MIC S. aureus E33
Experimental: as §1, §2, §3

S. aureus T17 [3] = test: as above; assay type: cell-based
Experimental: as §1, §2, §3
The S. aureus strain T17 is isolated in vivo. CFW1 mice are infected intraperitoneally with 4×10^7 S. aureus 133 cells per mouse. 0.5 h after the infection, the animals are treated intravenously with 50 mg/kg biphenomycin B. The kidneys are removed from the surviving animals on day 3 after the infection. After homogenization of the organs, the homogenates are plated out as described for RN4220Bi^R on antibiotic-free and antibiotic-containing agar plates and incubated at 37° C. overnight. […] About 20 of these colonies are tested for the biphenomycin B MIC, and a colony with an MIC of >50 μM is selected for further cultivation, and the strain is referred to a T17.

[4] = target: S. aureus 133 Translation; test: S. aureus in vitro transcription-translation assay (S30 extract, firefly luciferase reporter); assay type: biochemical
Source text: In vitro Transcription-Translation with S. aureus Extracts
Construction of an S. aureus Luciferase Reporter Plasmid
A reporter plasmid which can be used in an in vitro transcription-translation assay from S. aureus is constructed by using the plasmid pBESTluc (Promega Corporation, USA). The E. coli tac promoter present in this plasmid in front of the firefly luciferase is replaced by the capA1 promoter with appropriate Shine-Dalgarno sequence from S. aureus. The primers CAPFor 5′-CGGCCAAGCTTACTCGGAT-[…] […]-3′ and CAPRev 5′-[…]-3′ are used for this. The primer CAPFor contains the capA1 promoter, the ribosome binding site and the 5′ region of the luciferase gene. After PCR using pBESTluc as template it is possible to isolate a PCR product which contains the firefly luciferase gene with the fused capA1 promoter. This is, after restriction with ClaI and HindIII, ligated into the vector pBESTluc which has likewise been digested with ClaI and HindIII. The resulting plasmid pla is able to replicate in E. coli and be used as template in the S. aureus in vitro transcription-traslation assay.
Preparation of S30 Extracts from S. aureus
Six litres of BHI medium are inoculated with a 250 ml overnight culture of an S. aureus strain and allowed to grow at 37° C. until the OD600 run is 2-4. The cells are harvested by centrifugation and washed in 500 ml of cold buffer A (10 mM Tris acetate, pH 8.0, 14 mM Magnesium acetate, 1 mM DTT, 1 M KCl). After renewed centrifugation, the cells are washed in 250 ml of cold buffer A with 50 mM KCl, and the resulting pellets are frozen at −20° C. for 60 min. The pellets are thawed on ice in 30 to 60 min and taken up to a total volume of 99 ml in buffer B (10 mM Tris acetate, pH 8.0, 20 mM Magnesium acetate, 1 mM DTT, 50.mM KCl). 1.5 ml portions of lysostaphin (0.8 mg/ml) in buffer B are introduced into 3 precooled centrifuge cups and each mixed with 33 ml of the cell suspension. The samples are incubated at 37° C., shaking occasionally, for 45 to 60 min, before 150 μl of a 0.5 M DTT solution are added. The lysed cells are centrifuged at 30 000×g and 4° C. for 30 min. The cell pellet is taken up in buffer B and then centrifuged again under the same conditions, and the collected supernatants are combined. The supernatants are centrifuged again under the same conditions, and 0.25 volume of buffer C (670 mM Tris acetate, pH 8.0, 20 mM Magnesium acetate, 7 mM Na3 phosphoenolpyruvate, 7 mM DTT, 5.5 mM ATP, 70 μM amino acids (complete from Promega), 75 μg of pyruvate kinase (Sigma, Germany)/ml are added to the upper ⅔ of the supernatant. The samples are incubated at 37° C. for 30 min. The supernatants are dialysed against 2 l of dialysis buffer (10 mM Tris acetate, pH 8.0, 14 mM Magnesium acetate, 1 mM DTT, 60 mM Potassium acetate) in a dialysis tube with a 3500 Da cut-off with one buffer change at 4° C. overnight. The dialysate is concentrated to a protein concentration of about 10 mg/ml by covering the dialysis tube with cold PEG 8000 powder (Sigma, Germany) at 4° C. The S30 extracts can be stored in aliquots at −70° C.
Determination of the IC50 in the S. aureus in vitro Transcription-Translation Assay Inhibition of protein biosynthesis of the compounds can be shown in an in vitro transcription-translation assay. The assay is based on the cell-free transcription and translation of firefly luciferase using the reporter plasmid pla as template and cell-free S30 extracts obtained from S. aureus. The activity of the resulting luciferase can be detected by luminescence measurement.
The amount of S30 extract or plasmid pla to be employed must be tested anew for each preparation in order to ensure an optimal concentration in the assay. 3 μl of the substance to be tested, dissolved in 5% DMSO, are introduced into an MTP. Then 10 μl of a suitably concentrated plasmid solution pla are added. […]

S. aureus 133 = test: Systemic infection with S. aureus 133 (mouse sepsis model); assay type: in vivo; details: female CFW1 mice, i.p. infection, i.v. therapy 30 minutes after infection, survival recorded for 6 days
Experimental: Systemic Infection with S. aureus 133
For this purpose, S. aureus 133 cells are cultured overnight in BH broth (Oxoid, Germany). The overnight culture was diluted 1:100 in fresh BH broth and expanded for 3 hours. The bacteria which are in the logarithmic phase of growth are centrifuged and washed twice with buffered physiological saline solution. A cell suspension in saline solution with an extinction of 50 units is then adjusted in a photometer (Dr Lange LP 2W). After a dilution step (1:15), this suspension is mixed 1:1 with a 10% strength mucine suspension. 0.2 ml of this infection solution is administered i.p. per 20 g of mouse. This corresponds to a cell count of about 1-2×10 microbes/mouse. The i.v. therapy takes place 30 minutes after the infection. Female CFW1 mice are used for the infection test. The survival of the animals is recorded for 6 days. The animal model is adjusted so that untreated animals die within 24 h after the infection.

E. faecium L4001 [5] = test: MIC, alternative method: agar dilution test with 20% defibrinated horse blood; assay type: cell-based; details: Enterococcus faecium
Experimental: (§4) Alternative Method for Determining the Minimum Inhibitory Concentration (MIC)
(§5) The minimum inhibitory concentration (MIC) is the minimum concentration of an antibiotic with which the growth of a test microbe is inhibited over 18-24 h. The inhibitor concentration can be determined by standard microbiological methods using modified medium in an agar dilution test (see, for example, the National Committee for Clinical Laboratory Standards. Methods for dilution antimicrobial susceptibility tests for bacteria that grow aerobically; approved standard-fifth edition. NCCLS document M7-A5 [ISBN 1-56238-394-9]. NCCLS, 940 West Valley Road, Suite 1400, Wayne, Pa. 19087-1898 USA, 2000). The bacterial microbes are cultivated on 1.5% agar plates containing 20% defibrinated horse blood. The test microbes, which are incubated on Columbia blood agar plates (Becton-Dickinson) overnight, are diluted in PBS, adjusted to a microbe count of about 5×10^5 microbes/ml and placed as drops (1-3 μl) on test plates. The test substances contain various dilutions of the test substances (1:2 dilution stages). The cultures are incubated at 37° C. in the presence of 5% CO2 for 18-24 hours.
(§6) The lowest concentration of each substance at which no visible bacterial growth occurs is defined as the MIC and is reported in μg/ml.

S. aureus E33 [6] = test: as above; assay type: cell-based; details: Staphylococcus aureus
Experimental: as §4, §5, §6

S. aureus T17 [7] = test: as above; assay type: cell-based; details: Staphylococcus aureus
Experimental: as §4, §5, §6

S. aureus RN4220Bi^R = test: MIC of the isolated resistant colony; assay type: cell-based; details: colony selected as strain RN4220Bi^R
Experimental: The S. aureus strain RN4220Bi^R is isolated in vitro. […] Whereas about 1×10^7 cells grow on the antibiotic-free plate, about 100 colonies grow on the antibiotic-containing plate, corresponding to a resistance rate of 1×10^−5. Some of the colonies grown on the antibiotic-containing plate are tested for the biphenomycin B MIC. One colony with an MIC of >50 μM is selected for further use, and the strain is referred to as RN4220Bi^R.

[8] = Staphylococcus aureus, T17, read-out: MIC S. aureus T17
[9] = L4001, read-out: MIC E. faecium L4001
[10] = E33, read-out: MIC S. aureus E33
[11] = T17, read-out: MIC S. aureus T17
[12] = L4001, Table B, agar dilution, 20% defibrinated horse blood, read-out: MIC E. faecium L4001
[13] = E33, Table B, agar dilution, 20% defibrinated horse blood, read-out: MIC S. aureus E33
[14] = T17, Table B, agar dilution, 20% defibrinated horse blood, read-out: MIC S. aureus T17

Row | Compound | MIC (E. faecium L4001 [1]) | MIC (S. aureus E33 [2]) | MIC (S. aureus T17 [3]; [8]) | IC50 ([4]; Table A) | IC50 ([4]; Table B) | MIC (E. faecium L4001 [5]; [9]) | MIC (S. aureus E33 [6]; [10]) | MIC (S. aureus T17 [7]; [11]) | MIC (E. faecium L4001 [5]; [12]) | MIC (S. aureus E33 [6]; [13]) | MIC (S. aureus T17 [7]; [14]) | also measured
1 | CN1C(=O)[C@H](C[C@@H](O)CN)NC(=O)[C@@H](N)Cc2cc(ccc2O)-c2ccc(O)c(c2)C[C@H]1C(=O)NC1CCNCC1 [Example 2, (8S,11S,14S)-14-Amino-11-[(2R)-3-amino-2-hydroxypropyl]-5,17-dihydroxy-9-methyl-10,13-dioxo-N-piperidin-4-yl-9,12-diazatricyclo[14.3.1.1^2,6]henicosa-1(20),2(21),3,5,16,18-hexaene-8-carboxamide trihydrochloride] | 25 µM | 1.6 µM | 6.3 µM | 200 nM | – | – | – | – | – | – | – | therapeutic effect ED100 (S. aureus 133): 1.25 mg/kg
2 | CN1C(=O)[C@H](CCCN)NC(=O)[C@@H](N)Cc2cc(ccc2O)-c2ccc(O)c(c2)C[C@H]1C(=O)NCCN [Example 3, (8S,11S,14S)-14-Amino-N-(2-aminoethyl)-11-(3-aminopropyl)-5,17-dihydroxy-9-methyl-10,13-dioxo-9,12-diazatricyclo[14.3.1.1^2,6]henicosa-1(20),2(21),3,5,16,18-hexaene-8-carboxamide trihydrochloride] | 25 µM | 1.6 µM | 3.1 µM | 350 nM | 350 nM | 16 µg/mL | 2 µg/mL | 4 µg/mL | – | – | – | –
3 | NCCCNCCCNC(=O)[C@@H]1Cc2cc(ccc2O)-c2ccc(O)c(c2)C[C@H](N)C(=O)N[C@@H](CCCN)C(=O)N1 [Example 42, (8S,11S,14S)-14-amino-11-(3-aminopropyl)-N-{3-[(3-aminopropyl)amino]propyl}-5,17-dihydroxy-10,13-dioxo-9,12-diazatricyclo[14.3.1.1^2,6]henicosa-1(20),2(21),3,5,16,18-hexaene-8-carboxamide] | – | – | – | – | 400 nM | – | – | – | 4 µg/mL (≈ 7.02 µM) | 1 µg/mL (≈ 1.76 µM) | 2 µg/mL (≈ 3.51 µM) | –
4 | NCCC[C@@H]1NC(=O)[C@@H](N)Cc2cc(ccc2O)-c2ccc(O)c(c2)C[C@@H](C(=O)NCCN(CCN)CCN)NC1=O [Example 43, (8S,11S,14S)-14-amino-11-(3-aminopropyl)-N-{2-[bis(2-aminoethyl)amino]ethyl}-5,17-dihydroxy-10,13-dioxo-9,12-diazatricyclo[14.3.1.1^2,6]henicosa-1(20),2(21),3,5,16,18-hexaene-8-carboxamide] | – | – | – | – | 150 nM | – | – | – | 16 µg/mL (≈ 27.4 µM) | 1 µg/mL (≈ 1.71 µM) | 2 µg/mL (≈ 3.42 µM) | –
5 | NCCC[C@H](N)CNC(=O)[C@@H]1Cc2cc(ccc2O)-c2ccc(O)c(c2)C[C@H](N)C(=O)N[C@@H](CCCN)C(=O)N1 [Example 45, (8S,11S,14S)-14-amino-11-(3-aminopropyl)-N-[(2S)-2,5-diaminopentyl]-5,17-dihydroxy-10,13-dioxo-9,12-diazatricyclo[14.3.1.1 ^2,6]henicosa-1(20),2(21),3,5,16,18,-hexaene-8-carboxamide] | – | – | – | – | 100 nM | 2 µg/mL (≈ 3.6 µM) | 0.5 µg/mL (≈ 0.9 µM) | 2 µg/mL (≈ 3.6 µM) | – | – | – | –
6 | NC[C@H](O)C[C@@H]1NC(=O)[C@@H](N)Cc2cc(ccc2O)-c2ccc(O)c(c2)C[C@@H](C(=O)O)NC1=O [biphenomycin B, reference compound] | – | – | – | – | – | – | – | – | – | – | – | MIC (S. aureus T17 [3]; colony selected as strain T17, isolated from kidney of treated mice): > 50 µM; MIC (S. aureus RN4220Bi^R): > 50 µM
